Experimental data reported in article PMC6271349, “Synthesis and Biological Evaluation of 2-Phenoxyacetamide Analogues, a Novel Class of Potent and Selective Monoamine Oxidase Inhibitors” (Molecules, 2014).
Read-outs that look alike come from different tables or passages of the source.

Columns and labels:
Format in all cases: biochemical
[1] = biological target: T1, Human recombinant Monoamine Oxidase A (Homo sapiens, UniProt P21397); assay: MAOs inhibitory assay (fluorescence-based microplate), MAO-A; settings: for SI (selectivity index): SI = (IC50 of MAO-B)/(IC50 of MAO-A); for IC50: recombinant enzyme
T1 construct: purchased Sigma Aldrich M7316
T1 sequence (P21397 1-527): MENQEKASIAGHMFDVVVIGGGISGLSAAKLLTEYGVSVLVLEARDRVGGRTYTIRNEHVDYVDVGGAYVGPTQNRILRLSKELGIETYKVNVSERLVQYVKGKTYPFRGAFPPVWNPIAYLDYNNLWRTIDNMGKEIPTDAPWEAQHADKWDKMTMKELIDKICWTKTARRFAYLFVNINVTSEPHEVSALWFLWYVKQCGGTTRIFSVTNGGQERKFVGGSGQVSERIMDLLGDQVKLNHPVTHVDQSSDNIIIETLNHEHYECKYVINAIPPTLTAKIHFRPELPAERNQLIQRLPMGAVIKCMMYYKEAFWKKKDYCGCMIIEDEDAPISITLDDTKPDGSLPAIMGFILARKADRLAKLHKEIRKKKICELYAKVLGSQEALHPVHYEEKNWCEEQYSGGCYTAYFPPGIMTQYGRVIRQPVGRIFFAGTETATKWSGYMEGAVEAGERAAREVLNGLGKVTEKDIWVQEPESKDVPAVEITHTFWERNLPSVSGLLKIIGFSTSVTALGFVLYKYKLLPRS
Description: (§1) All of these compounds were evaluated for their inhibitory abilities towards MAOs. The inhibition activities against MAO-A and MAO-B of the synthesized compounds were investigated by our reported method.
(§2) Silica gel (100–200 mesh, Qingdao Haiyang Chemical Co., Qingdao, China) was used for flash column chromatography. Analytical thin-layer chromatography was performed with GF254 silica gel. ^1H-NMR spectra were recorded on a Bruker Avance 300 MHz apparatus. HR-ESI-MS and HR-EI analysis were measured on a Bruker micrOTOF-QII and Waters GCT Premier GC-TOF-MS spectrometer, respectively. All chemicals were purchased from the Eastern China Chemical Co (Hangzhou, China). All fluorescent data was recorded on Spectrum M2 (Molecular Device Company). Human recombinant Monoamine Oxidase A (M7316) and B (M7441) (5 mg/mL) were purchased from Sigma Aldrich. Pierce BCA protein assay kit (23227) was purchased from Thermo Scientific.
(§3) MAO IC50 values were determined using our reported fluorescence-based microplate assay. […] The fluorescent signals were measured at λex 360 nm and λem 460 nm on a Spectrum-M2 spectrofluorometer.

[2] = biological target: T2, Human recombinant Monoamine Oxidase B (Homo sapiens, UniProt P27338); assay: MAOs inhibitory assay (fluorescence-based microplate), MAO-B; settings: recombinant enzyme; inhibitor incubated 37 °C 3 h, borate buffer pH 8.4; mean IC50
T2 construct: purchased Sigma Aldrich M7441
T2 sequence (P27338 1-520): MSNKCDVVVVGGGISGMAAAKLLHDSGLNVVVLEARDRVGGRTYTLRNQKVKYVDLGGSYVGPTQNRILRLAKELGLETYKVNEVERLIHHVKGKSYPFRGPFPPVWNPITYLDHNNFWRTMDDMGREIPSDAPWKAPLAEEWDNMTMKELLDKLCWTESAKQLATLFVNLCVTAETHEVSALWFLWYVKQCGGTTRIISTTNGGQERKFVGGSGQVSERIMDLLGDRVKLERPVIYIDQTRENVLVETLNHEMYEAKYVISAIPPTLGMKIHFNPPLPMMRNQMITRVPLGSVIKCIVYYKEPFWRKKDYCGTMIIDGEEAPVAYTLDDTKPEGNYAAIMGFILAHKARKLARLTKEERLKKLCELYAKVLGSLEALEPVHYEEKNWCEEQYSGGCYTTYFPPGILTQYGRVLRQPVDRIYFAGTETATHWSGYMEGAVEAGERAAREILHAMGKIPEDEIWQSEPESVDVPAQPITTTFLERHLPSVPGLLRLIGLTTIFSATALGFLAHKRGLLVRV
Description: as §1, §2, §3

[3] = biological target: T3, native MAO-A in SH-SY5Y (neuroblastoma cells) lysate (Homo sapiens, UniProt P21397); assay: MAO inhibitory activity in SH-SY5Y cell lysate (endogenous MAO-A); settings: for IC50: SH-SY5Y lysate (only endogenous MAO-A activity), repeated three times; for times more potent in SH-SY5Y lysate relative to HepG2 lysate: ratio of lysate IC50 values (HepG2/SH-SY5Y)
T3 construct: endogenous in cells; host or cells: SH-SY5Y (neuroblastoma cells) lysate
T3 sequence (P21397 1-527): T1 sequence (P21397 1-527)
Description: (§4) Compounds 12, 21, 22, 25 were chosen for comparison due to their excellent inhibitory activities, and the results were shown in Table 2. […] This is most likely due to the instability of imine group in cell lysates.
as §3
(§5) Cells were cultured at 37 °C and 5% CO2 in RPMI-1640 media containing 100 units/mL penicillin, 100 μg/mL streptomycin, and 10% FBS. For lysis, cells were resuspended at 5 × 10^7 cells/mL in lysis buffer (42.3 mM PBS, 126 mM NaCl, 1.27 mM MgCl2, 0.85 mM EDTA, 1 mM PMSF, 0.95% Triton X-100, 9.5% glycerol, 4% 25× complete protease inhibitor, pH 7.4). The cells were vortexed to mix and keep on ice for 30 min, and then sonicated to break the cells (180 watts). The cell lysate was then clarified by ultracentrifugation at 4 °C for 30 min at 45,000. Total protein concentration was determined via a Bradford Protein Assay Kit (Bio-Rad) and cell lysates were stored at −80 °C until further use.

MAO-B = biological target: T4, MAO-B (Homo sapiens, UniProt P27338); assay: Reversibility of MAO-B inhibition (repeated washing method); settings: for inhibition at 0.1 µM: inhibitor 100 nM; for reversibility of MAO-B inhibition: repeated washing method
T4 construct: purchased Sigma Aldrich M7441
T4 sequence (P27338 1-520): T2 sequence (P27338 1-520)
Description: (§6) Reversibility of the MAO inhibition with derivatives of acetamides was evaluated by a reported method. […] After incubating for 2 h, an aliquot was stored at 4 °C for the measurement of MAO-A and -B activity. The remaining reaction solution was placed in an Ultrafree-0.5 centrifugal tube with a 30 kDa Biomax membrane (Millipore) and centrifuged at 9000 g for 20 min at 4 °C. The enzyme retained in the membrane was resuspended in a sodium phosphate buffer and centrifuged two successive times. Then, the enzyme retained in the membrane was resuspended in PBS ([…]) and an aliquot of this suspension was used for MAO-A and -B activity measurement. In order to define 100% MAO activity, control experiments were performed simultaneously by replacing the inhibitors with appropriate dilutions of the vehicles. The corresponding values of percent MAO isoforms inhibition (with and without repeated washing) were calculated based on the control experiments.

MAO-A = biological target: T5, MAO-A (Homo sapiens, UniProt P21397); assay: Reversibility of MAO-A inhibition (repeated washing method); settings: for inhibition at 0.1 µM: inhibitor 100 nM; for reversibility of MAO-A inhibition: repeated washing method
T5 construct: purchased Sigma Aldrich M7316
T5 sequence (P21397 1-527): T1 sequence (P21397 1-527)
Description: as §6

[4] = biological target: T6, native MAO-B in HepG2 (human hepatocellular liver carcinoma cell) lysate (Homo sapiens, UniProt P27338); assay: MAO inhibitory activity in HepG2 cell lysate (endogenous MAO-B); settings: HepG2 lysate (only endogenous MAO-B activity); repeated three times
T6 construct: endogenous in cells; host or cells: HepG2 (human hepatocellular liver carcinoma cell) lysate
T6 sequence (P27338 1-520): T2 sequence (P27338 1-520)
Description: as §4, §3, §5

[5] = inhibitor incubated 37 °C 3 h, borate buffer pH 8.4, mean IC50, read-out: IC50 (μM) MAO-A
[6] = after repeated washing, read-out: MAO-A Inhibiton (%) After Washing
[7] = before washing, read-out: MAO-A Inhibiton (%) Before Washing

SMILES: NC(=O)COc1ccccc1 [Compound 1]
- SI (selectivity index) [1]: 11.27
- IC50 [1, 5]: 69 µM
- IC50 [2]: 778 µM

SMILES: NC(=O)COc1ccc2ccccc2c1 [Compound 2]
- SI (selectivity index) [1]: 3.64
- IC50 [1, 5]: 149 µM
- IC50 [2]: 542 µM

SMILES: NC(=O)COc1ccc(F)cc1 [Compound 3]
- SI (selectivity index) [1]: 2.77
- IC50 [1, 5]: 92 µM
- IC50 [2]: 255 µM

SMILES: NC(=O)COc1ccc(Cl)cc1 [Compound 4]
- SI (selectivity index) [1]: 0.41
- IC50 [1, 5]: 490 µM
- IC50 [2]: 202 µM

SMILES: NC(=O)COc1ccccc1Cl [Compound 5]
- SI (selectivity index) [1]: 7.08
- IC50 [1, 5]: 98 µM
- IC50 [2]: 694 µM

SMILES: NC(=O)COc1ccc(C=O)cc1 [Compound 6]
- SI (selectivity index) [1]: 5.13
- IC50 [1, 5]: 89 µM
- IC50 [2]: 457 µM

SMILES: NC(=O)COc1ccccc1C=O [Compound 7]
- SI (selectivity index) [1]: 3.94
- IC50 [1, 5]: 142 µM
- IC50 [2]: 559 µM

SMILES: Cc1ccc(OCC(N)=O)cc1C [Compound 8]
- SI (selectivity index) [1]: 4.73
- IC50 [1, 5]: 113 µM
- IC50 [2]: 534 µM

SMILES: Cc1ccccc1OCC(N)=O [Compound 9]
- SI (selectivity index) [1]: 25.5
- IC50 [1, 5]: 26 µM
- IC50 [2]: 663 µM

SMILES: Cc1ccc(OCC(N)=O)cc1 [Compound 10]
- SI (selectivity index) [1]: 180
- IC50 [1, 5]: 3 µM
- IC50 [2]: 541 µM

SMILES: COc1ccccc1OCC(N)=O [Compound 11]
- SI (selectivity index) [1]: 8.07
- IC50 [1, 5]: 96 µM
- IC50 [2]: 775 µM

SMILES: COc1ccc(OCC(N)=O)cc1 [Compound 12, 2-(4-Methoxyphenoxy)acetamide]
- SI (selectivity index) [1]: 245
- IC50 [1, 5]: 4 µM
- IC50 [3]: 5.4 µM
- enzyme activity recovered after repeated washing (MAO-B) (MAO-B; after repeated washing): more than 80%
- inhibition at 0.1 µM (MAO-B; after repeated washing, read-out: MAO-B Inhibiton (%) After Washing): 8.6%
- inhibition at 0.1 µM (MAO-B; before washing, read-out: MAO-B Inhibiton (%) Before Washing): 96.9%
- reversibility of MAO-B inhibition (MAO-B): reversible
- enzyme activity recovered after repeated washing (MAO-A) (MAO-A; after repeated washing): more than 80%
- inhibition at 0.1 µM (MAO-A; [6]): 12.5%
- inhibition at 0.1 µM (MAO-A; [7]): 88.7%
- reversibility of MAO-A inhibition (MAO-A): reversible
- IC50 [2]: 980 µM

SMILES: NC(=O)COc1ccccc1C(=O)O [Compound 13]
- SI (selectivity index) [1]: 0.82
- IC50 [1, 5]: 217 µM
- IC50 [2]: 177 µM

SMILES: COC(=O)c1ccccc1OCC(N)=O [Compound 14]
- SI (selectivity index) [1]: 0.91
- IC50 [1, 5]: 108 µM
- IC50 [2]: 98 µM

SMILES: CC(C)(C)OC(=O)Nc1ccc(OCC(N)=O)cc1 [Compound 15]
- SI (selectivity index) [1]: 1.51
- IC50 [1, 5]: 196 µM
- IC50 [2]: 296 µM

SMILES: CC(=O)Nc1ccc(OCC(N)=O)cc1 [Compound 16]
- SI (selectivity index) [1]: 9.07
- IC50 [1, 5]: 61 µM
- IC50 [2]: 553 µM

SMILES: NC(=O)CSc1ccccc1 [Compound 17]
- SI (selectivity index) [1]: 3.87
- IC50 [1, 5]: 166 µM
- IC50 [2]: 642 µM

SMILES: Cc1ccc(SCC(N)=O)cc1C [Compound 18]
- IC50 [1, 5]: 292 µM
- IC50 [2]: 366 µM

SMILES: NC(=O)COc1ccc(C2=NCCN2)cc1 [Compound 19]
- SI (selectivity index) [1]: 8.30
- IC50 [1, 5]: 61 µM
- IC50 [2]: 506 µM

SMILES: NC(=O)COc1ccccc1C1=NCCN1 [Compound 20]
- SI (selectivity index) [1]: 3.84
- IC50 [1, 5]: 186 µM
- IC50 [2]: 714 µM

SMILES: C#CCN=Cc1ccc(OCC(N)=O)cc1 [Compound 21, 2-(4-((prop-2-ynylimino)methyl)phenoxy)acetamide]
- SI (selectivity index) [1]: 4.22
- IC50 ([1]; read-out: IC50 value (MAO-A)): 0.018 µM
- IC50 [3]: 0.18 µM
- times more potent in SH-SY5Y lysate relative to HepG2 lysate [3]: 2.3 times
- IC50 [4]: 0.41 µM
- IC50 [2]: 0.076 µM

SMILES: NC(=O)COc1ccc(C=NCc2ccccc2)cc1 [Compound 23]
- SI (selectivity index) [1]: 5.99
- IC50 [1, 5]: 96 µM
- IC50 [2]: 575 µM

SMILES: C#CCN=Cc1ccccc1OCC(N)=O [Compound 25]
- SI (selectivity index) [1]: 2.59
- IC50 [1, 5]: 0.068 µM
- IC50 [3]: 0.88 µM
- times more potent in SH-SY5Y lysate relative to HepG2 lysate [3]: 2.1 times
- IC50 [4]: 1.81 µM
- IC50 [2]: 0.176 µM

SMILES: C[C@H](NCc1ccc(OCc2cccc(F)c2)cc1)C(N)=O [Safinamide, reference compound]
- enzyme activity recovered after repeated washing (MAO-B) (MAO-B; after repeated washing): more than 80%
- reversibility of MAO-B inhibition (MAO-B): reversible
- enzyme activity recovered after repeated washing (MAO-A) (MAO-A; after repeated washing): more than 80%
- inhibition at 0.1 µM (MAO-A; [6]): 9.8%
- inhibition at 0.1 µM (MAO-A; [7]): 36.1%
- reversibility of MAO-A inhibition (MAO-A): reversible
